# Results taken from patent US5254533A, “Elfamycin” (Rhone-Poulenc Rorer S.A., priority 1990, dated 1993).
# Entries after “also recorded” stand apart in the source; their conditions may differ.
# Legend:
# [1] = test system: Staphylococcus aureus 209P; test: MIC, antibacterial activity (agar dilution); type: cell-based; settings: Mueller Hinton Agar, about 18 h at about 37° C
# [2] = test system: Staphylococcus epidermis; test: MIC, antibacterial activity (agar dilution); type: cell-based; settings: Mueller Hinton Agar, about 18 h at about 37° C
# [3] = test system: Streptococcus bovis 3; test: MIC, antibacterial activity (agar dilution); type: cell-based; settings: Streptococcus equinus, Mueller Hinton Agar, about 18 h at about 37° C
# [4] = test system: Streptococcus bovis 5; test: MIC, antibacterial activity (agar dilution); type: cell-based; settings: Streptococcus equinus, Mueller Hinton Agar, about 18 h at about 37° C
# [5] = test system: Streptococcus uberis 3; test: MIC, antibacterial activity (agar dilution); type: cell-based; settings: Mueller Hinton Agar, about 18 h at about 37° C
# [6] = test system: Escherichia coli INRA ECi; test: MIC, antibacterial activity (agar dilution); type: cell-based; settings: Mueller Hinton Agar, about 18 h at about 37° C
# [7] = test system: Bacteroides thetaiotaomicron ATCC 29741; test: MIC, antibacterial activity (agar dilution); type: cell-based; settings: ATCC29741, anaerobic, Mueller Hinton Agar + 2% Fildes, about 48 h at about 37° C
# Procedure: (§1) Description of the test method used
# (§2) The strains used, identified in the following table, were thawed at the time of use and then diluted to obtain the following concentrations:
# (§3) 10^7 bacteria/ml for the aerobic bacteria
# (§4) 10^6 bacteria/ml for the anaerobic bacteria.
# (§5) A stock suspension of the product of formula (II) was prepared at a concentration of 3000 mg/1 in water. It was then diluted with water to obtain concentrations of 300 mg/l, 100 mg/l, 50 mg/l and 25 mg/l.
# (§6) The culture media were the following:
# (§7) Mueller Hinton Agar (MHA) for the aerobic cultures
# (§8) Mueller Hinton Agar (MHA)+2% Fildes (MHA) for the anaerobic cultures.
# (§9) Each dilution of product was added to 20 mls of the culture medium maintained supercooled at 45° C., and the medium was then poured into Petri dishes. After gentle agitation, the dishes were dried open for about 1 hour at about 37° C.
# (§10) Inoculation was carried out with a DENLEY multipoint inoculator, which deposited 10^-3 ml of each inoculum per spot.
# (§11) Reading was performed after about 18 hours of incubation at about 37° C. for the aerobes and about 48 hours at about 37° C. for the anaerobes.
# (§12) The minimal inhibitory concentration (MIC) was the lowest concentration for which no growth was observed.
# [8] = test system: Clostridium septicum; test: MIC, antibacterial activity (agar dilution); type: cell-based; settings: anaerobic, Mueller Hinton Agar + 2% Fildes, about 48 h at about 37° C
# Procedure: as §1, §2, §3, §4, §5, §6, §7, §8, §9, §10, §11, §12
# [9] = test system: Escherichia coli DC2; test: MIC, antibacterial activity (agar dilution); type: cell-based; settings: Mueller Hinton Agar, about 18 h at about 37° C
# Procedure: as §1, §2, §3, §4, §5, §6, §7, §8, §9, §10, §11, §12
# [10] = test system: Escherichia coli DCO; test: MIC, antibacterial activity (agar dilution); type: cell-based; settings: Mueller Hinton Agar, about 18 h at about 37° C
# Procedure: as §1, §2, §3, §4, §5, §6, §7, §8, §9, §10, §11, §12
# [11] = test system: Klebsiella pneumoniae Caroli; test: MIC, antibacterial activity (agar dilution); type: cell-based; settings: Mueller Hinton Agar, about 18 h at about 37° C
# [12] = test system: Pseudomonas aeruginosa IP A 237; test: MIC, antibacterial activity (agar dilution); type: cell-based; settings: IPA237, Mueller Hinton Agar, about 18 h at about 37° C
# [13] = test system: Pasterella multocida IP; test: MIC, antibacterial activity (agar dilution); type: cell-based; settings: Mueller Hinton Agar, about 18 h at about 37° C
# [14] = test system: Proteus vulgaris IP A272; test: MIC, antibacterial activity (agar dilution); type: cell-based; settings: IPA272, Mueller Hinton Agar, about 18 h at about 37° C
# [15] = test system: Bacteroides fragilis ATCC 25285; test: MIC, antibacterial activity (agar dilution); type: cell-based; settings: ATCC25285, anaerobic, Mueller Hinton Agar + 2% Fildes, about 48 h at about 37° C
# [16] = test system: Bacteroides fragilis 479R; test: MIC, antibacterial activity (agar dilution); type: cell-based; settings: anaerobic, Mueller Hinton Agar + 2% Fildes, about 48 h at about 37° C
# [17] = test system: Bacteroides melaninogenicus ATCC 15930; test: MIC, antibacterial activity (agar dilution); type: cell-based; settings: Prevotella intermedia, ATCC15930; anaerobic, Mueller Hinton Agar + 2% Fildes, about 48 h at about 37° C
# [18] = Use as a growth factor in weaned piglets (Example 5); type: in vivo, weaned Large-White Belgian Landrace crossed piglets; settings: for Initial weight: start of period 14-28 days; for Index of consumption: consumption/weight gain ratio
# [19] = Use as a growth factor in piglets (Example 6); type: in vivo, weaned Large-White Belgian Landrace crossed piglets; settings: for Final weight: control 24.7
# Text: 130 weaned Large-White Belgian Landrace crossed piglets were used. The experiment began 2 weeks after weaning of the animals, i.e. at a mean age of 42 days.
# The animals received the experimental feed ad libitum in the form of granules 2.5 mm in diameter.
# The animals were weighed at the beginning, middle and end of the experiment. The consumptions were noted every week.
# Tables 7, 8 and 9 respectively show the percentage composition and the characteristics of the diets, the percentage composition of the CMV and the percentage composition of the premixes.
# The results are shown in Table 10 for the period 0-14 days, Table 11 for the period 14-28 days and Table 12 for the period 0-28 days.
smiles,measurement,setting,value
C/C=C\C=C\C1OC(O)(C(CC)C(=O)NC/C=C/C=C(\C)C(OC)C(C)C2CC(O)C(/C=C/C=C/C=C/C(=O)O)O2)C(O)C(O)C1(C)C (centres unmarked) [formula (II)],MIC,[1],> 300 µg/mL
same,MIC,[2],> 300 µg/mL
same,MIC,[3],> 300 µg/mL
same,MIC,[4],25 µg/mL
same,MIC,[5],50 µg/mL
same,MIC,[6],> 300 µg/mL
same,MIC,[7],> 100 µg/mL
same,MIC,[8],> 100 µg/mL
same,MIC,[9],100 µg/mL
same,MIC,[10],> 300 µg/mL
same,MIC,[11],> 300 µg/mL
same,MIC,[12],> 300 µg/mL
same,MIC,[13],> 300 µg/mL
same,MIC,[14],> 300 µg/mL
same,MIC,[15],> 100 µg/mL
same,MIC,[16],> 100 µg/mL
same,MIC,[17],> 100 µg/mL
same,Weight gain,"[18]; 40 ppm in feed, 0-14 days, control 329",360 g/day
same,Consumption,"[18]; 40 ppm in feed, 0-14 days, control 614",625 g/day
same,Weight gain,"[18]; 40 ppm in feed, 0-28 days, control 445",490 g/day
same,Consumption,"[18]; 40 ppm in feed, 0-28 days, control 822",847 g/day
same,Weight gain,"[18]; 40 ppm in feed, 14-28 days, control 560",620 g/day
same,Consumption,"[18]; 40 ppm in feed, 14-28 days, control 1031",1068 g/day
same,Intermediate Weight,"[18]; 40 ppm in feed, Table 4, 0-14 days, control 15.3",15.8 kg
same,Intermediate Weight,"[18]; 40 ppm in feed, Table 5, 14-28 days, control 23.1",24.5 kg
same,Intermediate Weight,"[18]; 40 ppm in feed, Table 6, 0-28 days, control 23.1",24.5 kg
same,Initial weight,"[18]; 40 ppm in feed, control 15.3",15.8 kg
same,improvement in growth relative to the basic diet,"[18]; 40 ppm, overall period 0-28 days",10%
same,performances of the animals (in words),"[18]; 60 ppm compared with the same product at 40 ppm, 0-28 days",somewhat behind those observed with the same product at 40 ppm
same,Weight gain,"[18]; 60 ppm in feed, 0-14 days, control 329",338 g/day
same,Consumption,"[18]; 60 ppm in feed, 0-14 days, control 614",599 g/day
same,Weight gain,"[18]; 60 ppm in feed, 0-28 days, control 445",463 g/day
same,Consumption,"[18]; 60 ppm in feed, 0-28 days, control 822",812 g/day
same,Weight gain,"[18]; 60 ppm in feed, 14-28 days, control 560",588 g/day
same,Consumption,"[18]; 60 ppm in feed, 14-28 days, control 1031",1026 g/day
same,Intermediate Weight,"[18]; 60 ppm in feed, Table 4, 0-14 days, control 15.3",15.3 kg
same,Intermediate Weight,"[18]; 60 ppm in feed, Table 5, 14-28 days, control 23.1",23.5 kg
same,Intermediate Weight,"[18]; 60 ppm in feed, Table 6, 0-28 days, control 23.1",23.5 kg
same,Initial weight,"[18]; 60 ppm in feed, control 15.3",15.3 kg
same,Index of consumption,"[18]; 40 ppm in feed, 0-14 days, control 1.88",1.77
same,Index of consumption,"[18]; 40 ppm in feed, 0-28 days, control 1.85",1.73
same,Index of consumption,"[18]; 40 ppm in feed, 14-28 days, control 1.86",1.73
same,Index of consumption,"[18]; 60 ppm in feed, 0-14 days, control 1.88",1.78
same,Index of consumption,"[18]; 60 ppm in feed, 0-28 days, control 1.85",1.75
same,Index of consumption,"[18]; 60 ppm in feed, 14-28 days, control 1.86",1.74
same,effect on index of consumption (in words),[18]; overall period 0-28 days,improved quite significantly
same,effect on consumption (in words),"[18]; overall period 0-28 days, listed as product II",did not bring about a significant improvement in consumption; also recorded: comparable to tylosin
same,Index of consumption,"[19]; 10 ppm in feed, 0-14 days, control 1.76",1.70
same,Weight gain,"[19]; 10 ppm in feed, 0-14 days, control 368",418 g/day
same,Consumption,"[19]; 10 ppm in feed, 0-14 days, control 645",694 g/day
same,Index of consumption,"[19]; 10 ppm in feed, 0-28 days, control 1.80",1.72
same,Weight gain,"[19]; 10 ppm in feed, 0-28 days, control 474",533 g/day
same,Consumption,"[19]; 10 ppm in feed, 0-28 days, control 852",914 g/day
same,Index of consumption,"[19]; 10 ppm in feed, 14-28 days, control 1.84",1.75
same,Weight gain,"[19]; 10 ppm in feed, 14-28 days, control 579",648 g/day
same,Consumption,"[19]; 10 ppm in feed, 14-28 days, control 1059",1133 g/day
same,Final weight,"[19]; 10 ppm in feed, Table 11, 14-28 days",26.4 kg
same,Final weight,"[19]; 10 ppm in feed, Table 12, 0-28 days",26.4 kg
same,Index of consumption,"[19]; 20 ppm in feed, 0-14 days, control 1.76",1.61
same,Weight gain,"[19]; 20 ppm in feed, 0-14 days, control 368",430 g/day
same,Consumption,"[19]; 20 ppm in feed, 0-14 days, control 645",689 g/day
same,Index of consumption,"[19]; 20 ppm in feed, 0-28 days, control 1.80",1.69
same,Weight gain,"[19]; 20 ppm in feed, 0-28 days, control 474",547 g/day
same,Consumption,"[19]; 20 ppm in feed, 0-28 days, control 852",927 g/day
same,Index of consumption,"[19]; 20 ppm in feed, 14-28 days, control 1.84",1.75
same,Weight gain,"[19]; 20 ppm in feed, 14-28 days, control 579",664 g/day
same,Consumption,"[19]; 20 ppm in feed, 14-28 days, control 1059",1164 g/day
same,Final weight,"[19]; 20 ppm in feed, Table 11, 14-28 days",26.8 kg
same,Final weight,"[19]; 20 ppm in feed, Table 12, 0-28 days",26.8 kg
same,Index of consumption,"[19]; 40 ppm in feed, 0-14 days, control 1.76",1.70
same,Weight gain,"[19]; 40 ppm in feed, 0-14 days, control 368",416 g/day
same,Consumption,"[19]; 40 ppm in feed, 0-14 days, control 645",701 g/day
same,Index of consumption,"[19]; 40 ppm in feed, 0-28 days, control 1.80",1.70
same,Weight gain,"[19]; 40 ppm in feed, 0-28 days, control 474",532 g/day
same,Consumption,"[19]; 40 ppm in feed, 0-28 days, control 852",900 g/day
same,Index of consumption,"[19]; 40 ppm in feed, 14-28 days, control 1.84",1.70
same,Weight gain,"[19]; 40 ppm in feed, 14-28 days, control 579",648 g/day
same,Consumption,"[19]; 40 ppm in feed, 14-28 days, control 1059",1099 g/day
same,Final weight,"[19]; 40 ppm in feed, Table 11, 14-28 days",26.4 kg
same,Final weight,"[19]; 40 ppm in feed, Table 12, 0-28 days",26.4 kg
